Laboratory results reported in PMC5218480 (PLoS ONE, 2017).

Tested on: MV-4-11 cells
Experiment: Gene expression microarray analysis (Affymetrix PrimeView) and GSEA
Type: cell-based, human
Design: RFU PODN (11730768_x_at) / Fold change /veh PODN (11730768_x_at) / RFU LINC00158 (11744669_a_at) / Fold change /veh LINC00158 (11744669_a_at) / RFU DUSP10 (11751237_a_at) / Fold change /veh DUSP10 (11751237_a_at) / RFU ID3 (11757404_x_at) / Fold change /veh ID3 (11757404_x_at) / RFU PLEKHG5 (11737974_s_at) / Fold change /veh PLEKHG5 (11737974_s_at) / RFU LRRC4B (11730491_at) / Fold change /veh LRRC4B (11730491_at) / RFU GIMAP4 (11747438_a_at) / Fold change /veh GIMAP4 (11747438_a_at) / RFU KRT8 (11758183_x_at) / Fold change /veh KRT8 (11758183_x_at) / RFU CNN1 (11734310_a_at) / Fold change /veh CNN1 (11734310_a_at) / RFU VPS37D (11726825_at) / Fold change /veh VPS37D (11726825_at) / RFU C10orf10 (11716522_x_at) / Fold change /veh C10orf10 (11716522_x_at) / RFU KIR2DL2 /// KIR2DL4 /// KIR2DL5A /// KIR2DL5B /// KIR2DS1 /// KIR2DS2 /// KIR2DS3 /// KIR2DS4 /// KIR3DL3 /// KIR3DL3 /// KIR3DS1 (11738374_at) / Fold change /veh KIR2DL2 /// KIR2DL4 /// KIR2DL5A /// KIR2DL5B /// KIR2DS1 /// KIR2DS2 /// KIR2DS3 /// KIR2DS4 /// KIR3DL3 /// KIR3DL3 /// KIR3DS1 (11738374_at) / RFU C1QL1 (11718748_at) / Fold change /veh C1QL1 (11718748_at) / RFU TMPRSS4 (11747572_a_at) / Fold change /veh TMPRSS4 (11747572_a_at) / RFU HAMP (11756126_x_at) / Fold change /veh HAMP (11756126_x_at) / RFU RNFT2 (11725882_a_at) / Fold change /veh RNFT2 (11725882_a_at) / RFU NR4A2 (11747474_a_at) / Fold change /veh NR4A2 (11747474_a_at) / RFU ABCC12 (11746883_a_at) / Fold change /veh ABCC12 (11746883_a_at) / RFU TMEM136 (11760407_x_at) / Fold change /veh TMEM136 (11760407_x_at) / RFU CLDN22 /// WWC2 (11732394_at) / Fold change /veh CLDN22 /// WWC2 (11732394_at) / RFU HLA-DPB1 (11760878_x_at) / Fold change /veh HLA-DPB1 (11760878_x_at) / RFU SPINT1 (11716480_a_at) / Fold change /veh SPINT1 (11716480_a_at) / RFU GAP43 (11754022_s_at) / Fold change /veh GAP43 (11754022_s_at) / RFU A4GNT (11735810_at) / Fold change /veh A4GNT (11735810_at) / RFU PRB3 (11715151_x_at) / Fold change /veh PRB3 (11715151_x_at) / RFU TUBB4B (11761932_at) / Fold change /veh TUBB4B (11761932_at) / RFU CAPN14 (11732068_a_at) / Fold change /veh CAPN14 (11732068_a_at) / RFU TMCC2 (11721928_a_at) / Fold change /veh TMCC2 (11721928_a_at) / RFU IRGQ (11745062_a_at) / Fold change /veh IRGQ (11745062_a_at) / RFU FAM174B (11720279_a_at) / Fold change /veh FAM174B (11720279_a_at) / RFU TMPRSS4 (11748680_a_at) / Fold change /veh TMPRSS4 (11748680_a_at) / RFU FAM212B (11763350_a_at) / Fold change /veh FAM212B (11763350_a_at) / RFU PLEKHG5 (11743358_a_at) / Fold change /veh PLEKHG5 (11743358_a_at) / RFU ZSCAN30 (11745921_a_at) / Fold change /veh ZSCAN30 (11745921_a_at) / RFU CMKLR1 (11741424_a_at) / Fold change /veh CMKLR1 (11741424_a_at) / RFU LOC101060620 /// MAPK8IP1 (11723275_at) / Fold change /veh LOC101060620 /// MAPK8IP1 (11723275_at) / RFU SPTSSB (11747773_x_at) / Fold change /veh SPTSSB (11747773_x_at) / RFU PRSS12 (11739890_at) / Fold change /veh PRSS12 (11739890_at) / RFU BIN1 (11741810_x_at) / Fold change /veh BIN1 (11741810_x_at) / RFU WNT11 (11732464_a_at) / Fold change /veh WNT11 (11732464_a_at) / RFU C10orf10 (11716521_a_at) / Fold change /veh C10orf10 (11716521_a_at) / RFU C5orf56 (11738089_at) / Fold change /veh C5orf56 (11738089_at) / RFU CYB561 (11721691_x_at) / Fold change /veh CYB561 (11721691_x_at) / RFU ANKRD19P (11752326_a_at) / Fold change /veh ANKRD19P (11752326_a_at) / RFU OR2T12 /// OR2T33 /// OR2T8 (11738714_s_at) / Fold change /veh OR2T12 /// OR2T33 /// OR2T8 (11738714_s_at) / RFU VCAN (11748164_a_at) / Fold change /veh VCAN (11748164_a_at) / RFU JSRP1 (11732532_at) / Fold change /veh JSRP1 (11732532_at) / RFU KRTAP10-11 (11738290_x_at) / Fold change /veh KRTAP10-11 (11738290_x_at) / RFU MYO3A (11730013_a_at) / Fold change /veh MYO3A (11730013_a_at) / RFU EBF3 (11725865_a_at) / Fold change /veh EBF3 (11725865_a_at) / RFU CAMK2N1 (11719241_x_at) / Fold change /veh CAMK2N1 (11719241_x_at) / RFU C5orf56 (11738088_a_at) / Fold change /veh C5orf56 (11738088_a_at) / RFU OLFML3 (11715873_a_at) / Fold change /veh OLFML3 (11715873_a_at) / RFU LOC100653217 /// NTM (11731650_a_at) / Fold change /veh LOC100653217 /// NTM (11731650_a_at) / RFU MAPK11 (11762145_a_at) / Fold change /veh MAPK11 (11762145_a_at) / RFU FIZ1 (11724087_x_at) / Fold change /veh FIZ1 (11724087_x_at) / RFU OASL (11726364_x_at) / Fold change /veh OASL (11726364_x_at) / RFU SOX15 (11748057_x_at) / Fold change /veh SOX15 (11748057_x_at) / RFU CD79A (11719716_a_at) / Fold change /veh CD79A (11719716_a_at) / RFU HIST1H1D (11736915_at) / Fold change /veh HIST1H1D (11736915_at) / RFU CASKIN2 (11723855_a_at) / Fold change /veh CASKIN2 (11723855_a_at) / RFU LOC730098 (11760151_x_at) / Fold change /veh LOC730098 (11760151_x_at) / RFU OR4N2 (11742367_at) / Fold change /veh OR4N2 (11742367_at) / RFU PRRT2 (11749266_a_at) / Fold change /veh PRRT2 (11749266_a_at) / RFU SNX32 (11753110_a_at) / Fold change /veh SNX32 (11753110_a_at) / RFU CDHR5 (11726645_a_at) / Fold change /veh CDHR5 (11726645_a_at) / RFU RCAN1 (11760418_a_at) / Fold change /veh RCAN1 (11760418_a_at) / RFU FAM167A (11723789_a_at) / Fold change /veh FAM167A (11723789_a_at) / RFU FAM26E (11764081_at) / Fold change /veh FAM26E (11764081_at) / RFU ISYNA1 (11749810_s_at) / Fold change /veh ISYNA1 (11749810_s_at) / RFU ACY1 (11761880_at) / Fold change /veh ACY1 (11761880_at) / RFU 11764098_at / Fold change /veh 11764098_at / RFU SAMD14 (11745864_x_at) / Fold change /veh SAMD14 (11745864_x_at) / RFU NPB (11741838_a_at) / Fold change /veh NPB (11741838_a_at) / RFU TMPRSS6 (11731388_a_at) / Fold change /veh TMPRSS6 (11731388_a_at) / RFU KRTAP10-2 (11738614_at) / Fold change /veh KRTAP10-2 (11738614_at) / RFU ARHGAP8 /// PRR5-ARHGAP8 (11727945_x_at) / Fold change /veh ARHGAP8 /// PRR5-ARHGAP8 (11727945_x_at) / RFU KRTAP5-7 /// NADSYN1 (11734609_at) / Fold change /veh KRTAP5-7 /// NADSYN1 (11734609_at) / RFU RASL12 (11751679_a_at) / Fold change /veh RASL12 (11751679_a_at) / RFU CDKN2B (11736163_a_at) / Fold change /veh CDKN2B (11736163_a_at) / RFU PRF1 (11729649_at) / Fold change /veh PRF1 (11729649_at) / RFU, ZNF638 /// ZNF638-IT1 / Fold change vs veh, ZNF638 /// ZNF638-IT1 / RFU, PANK3 / Fold change vs veh, PANK3 / RFU, SH3YL1 / Fold change vs veh, SH3YL1 / RFU, ZEB2 / Fold change vs veh, ZEB2 / RFU, NRIP1 / Fold change vs veh, NRIP1 / RFU, PTTG1IP / Fold change vs veh, PTTG1IP / RFU, CAPN2 / Fold change vs veh, CAPN2 / RFU, MED14 / Fold change vs veh, MED14 / RFU, SNORA58 / Fold change vs veh, SNORA58 / RFU, C1orf63 / Fold change vs veh, C1orf63 / RFU, LRRFIP1 / Fold change vs veh, LRRFIP1 / RFU, NDUFAF7 / Fold change vs veh, NDUFAF7 / RFU, SLC12A2 / Fold change vs veh, SLC12A2 / RFU, IBTK / Fold change vs veh, IBTK / RFU, ESF1 / Fold change vs veh, ESF1 / Fold change vs veh, TMEM50B / RFU, TAOK1 / Fold change vs veh, TAOK1 / RFU, ACBD3 / Fold change vs veh, ACBD3 / RFU, TMA16 / Fold change vs veh, TMA16 / RFU, RWDD3 / Fold change vs veh, RWDD3 / RFU, BCAT1 / Fold change vs veh, BCAT1 / RFU, EDEM3 / Fold change vs veh, EDEM3 / RFU, TMEM33 / Fold change vs veh, TMEM33 / RFU, WDR75 / Fold change vs veh, WDR75 / RFU, AHCTF1 / Fold change vs veh, AHCTF1 / RFU, TFRC / Fold change vs veh, TFRC / RFU, ZDHHC17 / Fold change vs veh, ZDHHC17 / RFU, NOM1 / Fold change vs veh, NOM1 / RFU, ARL8B / Fold change vs veh, ARL8B / RFU, ZBTB11 / Fold change vs veh, ZBTB11 / RFU, TAMM41 / Fold change vs veh, TAMM41 / RFU, KIAA1704 /// LOC100996395 / Fold change vs veh, KIAA1704 /// LOC100996395 / RFU, ING1 / Fold change vs veh, ING1 / RFU, TRMT61B / Fold change vs veh, TRMT61B / RFU, FUBP3 / Fold change vs veh, FUBP3 / RFU, TP53 / Fold change vs veh, TP53 / RFU, TNKS2 / Fold change vs veh, TNKS2 / RFU, ZFP14 / Fold change vs veh, ZFP14 / RFU, ACTR2 / Fold change vs veh, ACTR2 / RFU, PPP3R1 / Fold change vs veh, PPP3R1 / RFU, PIK3R1 / Fold change vs veh, PIK3R1 / RFU, HNRNPA1 / Fold change vs veh, HNRNPA1 / RFU, RNF170 / Fold change vs veh, RNF170 / RFU, ZNF28 / Fold change vs veh, ZNF28 / RFU, RNGTT / Fold change vs veh, RNGTT / RFU, OGT / Fold change vs veh, OGT / RFU, BRD1 / Fold change vs veh, BRD1 / RFU, MARS / Fold change vs veh, MARS / RFU, ZNF655 / Fold change vs veh, ZNF655 / RFU, FAHD1 / Fold change vs veh, FAHD1 / RFU, BDP1 / Fold change vs veh, BDP1 / RFU, LRRCC1 / Fold change vs veh, LRRCC1 / RFU, ARID1A / Fold change vs veh, ARID1A / RFU, ZNF146 / Fold change vs veh, ZNF146 / RFU, ZNF330 / Fold change vs veh, ZNF330 / RFU, GPN3 / Fold change vs veh, GPN3 / RFU, C9orf123 / Fold change vs veh, C9orf123 / RFU, N4BP2L2 / Fold change vs veh, N4BP2L2 / RFU, ARFIP1 / Fold change vs veh, ARFIP1 / RFU, FAM179B / Fold change vs veh, FAM179B / RFU, BCL10 / Fold change vs veh, BCL10 / RFU, UHRF1BP1L / Fold change vs veh, UHRF1BP1L / RFU, BET1 / Fold change vs veh, BET1 / RFU, CNOT2 / Fold change vs veh, CNOT2 / RFU, ZNF268 / Fold change vs veh, ZNF268 / Fold change vs veh, ZNF507 / RFU, DGCR2 / Fold change vs veh, DGCR2 / RFU, WDSUB1 / Fold change vs veh, WDSUB1 / Fold change vs veh, HSP90B1 /// MIR3652 / RFU, ADSS / Fold change vs veh, ADSS / RFU, GK / Fold change vs veh, GK / RFU, ZNF148 / Fold change vs veh, ZNF148 / RFU, TAF9 / Fold change vs veh, TAF9 / RFU, SLC1A5 / Fold change vs veh, SLC1A5 / RFU, SLMO2 / Fold change vs veh, SLMO2 / RFU, ABCC4 / Fold change vs veh, ABCC4 / RFU, LOC101060439 /// RAP1B / Fold change vs veh, LOC101060439 /// RAP1B / RFU, RFX7 / Fold change vs veh, RFX7 / RFU, GTPBP10 / Fold change vs veh, GTPBP10 / RFU, CNEP1R1 / Fold change vs veh, CNEP1R1 / RFU, BIVM-ERCC5 /// ERCC5 / Fold change vs veh, BIVM-ERCC5 /// ERCC5 / RFU, ILF3 / Fold change vs veh, ILF3 / RFU 11762660_at / Fold change /veh 11762660_at / RFU VCAN (11757783_s_at) / Fold change /veh VCAN (11757783_s_at) / RFU DDX43 (11728927_at) / Fold change /veh DDX43 (11728927_at) / RFU KRT8 (11758188_x_at) / Fold change /veh KRT8 (11758188_x_at) / RFU NKD1 (11759106_at) / Fold change /veh NKD1 (11759106_at) / RFU SRD5A1 (11742802_a_at) / Fold change /veh SRD5A1 (11742802_a_at) / RFU TPSAB1 /// TPSB2 (11721975_s_at) / Fold change /veh TPSAB1 /// TPSB2 (11721975_s_at) / RFU GSTM3 (11746129_a_at) / Fold change /veh GSTM3 (11746129_a_at) / RFU IL23R (11737362_x_at) / Fold change /veh IL23R (11737362_x_at) / RFU TMEM51 (11727254_a_at) / Fold change /veh TMEM51 (11727254_a_at) / RFU PIWIL2 (11732686_x_at) / Fold change /veh PIWIL2 (11732686_x_at) / RFU ORM1 (11744905_x_at) / Fold change /veh ORM1 (11744905_x_at) / RFU CCDC152 (11743942_at) / Fold change /veh CCDC152 (11743942_at) / RFU ECM1 (11717891_a_at) / Fold change /veh ECM1 (11717891_a_at) / RFU IL23R (11748794_a_at) / Fold change /veh IL23R (11748794_a_at) / RFU TNFAIP8L3 (11732012_x_at) / Fold change /veh TNFAIP8L3 (11732012_x_at) / RFU MBOAT4 (11741988_at) / Fold change /veh MBOAT4 (11741988_at) / RFU 11764193_at / Fold change /veh 11764193_at / RFU TMEM53 (11763286_at) / Fold change /veh TMEM53 (11763286_at) / RFU MAGEB2 (11727129_at) / Fold change /veh MAGEB2 (11727129_at) / RFU TMEM200A (11744735_a_at) / Fold change /veh TMEM200A (11744735_a_at) / RFU CCDC152 (11751479_a_at) / Fold change /veh CCDC152 (11751479_a_at) / RFU FAM211A (11726209_a_at) / Fold change /veh FAM211A (11726209_a_at) / RFU RGS16 (11746705_a_at) / Fold change /veh RGS16 (11746705_a_at) / RFU VCAN (11755009_s_at) / Fold change /veh VCAN (11755009_s_at) / RFU RHOB (11743442_s_at) / Fold change /veh RHOB (11743442_s_at) / RFU RGS16 (11720943_a_at) / Fold change /veh RGS16 (11720943_a_at) / RFU RGS16 (11720944_at) / Fold change /veh RGS16 (11720944_at) / RFU, VPS4B / Fold change vs veh, VPS4B / RFU, CREB1 / Fold change vs veh, CREB1 / RFU, DNAJC13 / Fold change vs veh, DNAJC13 / RFU, GNAQ / Fold change vs veh, GNAQ / RFU, CDK5R1 / Fold change vs veh, CDK5R1 / RFU, ZRANB3 / Fold change vs veh, ZRANB3 / RFU, CUL4A / Fold change vs veh, CUL4A / RFU, CCNY / Fold change vs veh, CCNY / RFU, UFL1 / Fold change vs veh, UFL1 / RFU, COG3 / Fold change vs veh, COG3 / RFU, DIAPH2 / Fold change vs veh, DIAPH2 / RFU, SKA2 / Fold change vs veh, SKA2 / RFU, AFF3 / Fold change vs veh, AFF3 / RFU, LMF1 / Fold change vs veh, LMF1 / RFU, IPO11 / Fold change vs veh, IPO11 / RFU, DFFB / Fold change vs veh, DFFB / RFU, FOXP1 / Fold change vs veh, FOXP1 / RFU, CARD8 / Fold change vs veh, CARD8 / RFU, STRN3 / Fold change vs veh, STRN3 / RFU, ADK / Fold change vs veh, ADK / RFU, RASSF2 / Fold change vs veh, RASSF2 / RFU, WIPF1 / Fold change vs veh, WIPF1 / RFU, LARP1B / Fold change vs veh, LARP1B / RFU, RASA1 / Fold change vs veh, RASA1 / RFU, RB1 / Fold change vs veh, RB1 / RFU, PPFIA1 / Fold change vs veh, PPFIA1 / RFU, MAT2A / Fold change vs veh, MAT2A / RFU, CCT5 / Fold change vs veh, CCT5 / RFU, WDR92 / Fold change vs veh, WDR92 / RFU, CUX1 / Fold change vs veh, CUX1 / RFU, TTC7A / Fold change vs veh, TTC7A / RFU, TMEM135 / Fold change vs veh, TMEM135 / RFU, DEPTOR / Fold change vs veh, DEPTOR / RFU, CPM / Fold change vs veh, CPM / RFU, DNAJB6 / Fold change vs veh, DNAJB6 / RFU, CACNA2D3 / Fold change vs veh, CACNA2D3 / RFU, DTX4 / Fold change vs veh, DTX4 / RFU, TFCP2 / Fold change vs veh, TFCP2 / RFU, GMCL1 /// GMCL1P1 / Fold change vs veh, GMCL1 /// GMCL1P1 / RFU, AEBP2 / Fold change vs veh, AEBP2 / RFU, SNHG1 /// SNORD22 /// SNORD25 /// SNORD26 /// SNORD27 /// SNORD28 /// SNORD29 /// SNORD31 / Fold change vs veh, SNHG1 /// SNORD22 /// SNORD25 /// SNORD26 /// SNORD27 /// SNORD28 /// SNORD29 /// SNORD31 / Fold change (Aza/veh), C12orf56 (ProbeSet 11735607_a_at) / Fold change (ACY-1035/veh), C12orf56 (ProbeSet 11735607_a_at) / Fold change (Aza/veh), FGFR1OP (ProbeSet 11751329_s_at) / Fold change (ACY-1035/veh), FGFR1OP (ProbeSet 11751329_s_at) / Fold change (Aza/veh), VPS36 (ProbeSet 11739960_a_at) / Fold change (ACY-1035/veh), VPS36 (ProbeSet 11739960_a_at) / RFU SYPL1 (11715823_x_at) / Fold change /veh SYPL1 (11715823_x_at) / RFU IGFBP7 (11715501_s_at) / Fold change /veh IGFBP7 (11715501_s_at) / RFU REEP3 (11722064_at) / Fold change /veh REEP3 (11722064_at) / RFU IGLL1 (11728026_x_at) / Fold change /veh IGLL1 (11728026_x_at): dose or concentration left out as unconfirmed
Conditions: ProbeSet 11732281_s_at; LIST D

Nc1ccc(-c2cccs2)cc1NC(=O)c1ccc2c(c1)cc(C1CC1)n2CCN1CCOCC1 [ACY-1035]
RFU, FOXP1: 243.86 RFU
